According to US8119380B2, “Methods and materials for making and using transgenic dicamba-degrading organisms” (Board of Regents of University of Nebraska, priority 1997, dated 2012):
Several values for one entry are separate records, joined by “and”; a condition that tells them apart may be missing. Identical values can stand only once.

Columns and labels:
plants = conditions: cited from earlier work
dicamba O-demethylase [1] = type: biochemical; conditions: mixture of three partially purified components, 30 minutes at 30° C.; 0.5 mM NADH, 0.5 mM NADPH, 10 mM MgCl2, 0.5 mM FeSO4, 0.2 mM FAD, 0.2 mM FMN
Protocol: (§1) Enzyme assays. […] At specific times, the reactions were stopped by adding 50 μl of 5% (vol/vol) H2SO4.
(§2) The solvent system for running the TLC was chloroform-ethanol-acetic acid (85:10:5 [vol/vol/vol]). The resolved reaction products were visualized and quantified by exposing the TLC plate to a phosphor screen for 24 hours and then scanning the screen in a PhosphorImager SF (Molecular Dynamics, Sunnyvale, Calif.). […] Specific activities were based on the total protein concentration of the assay mixture.
(§3) When a single component was assayed, the other two components were provided in excess.
(§4) Component and cofactor requirements. […] Samples were applied to a Q-Sepharose (Fast Flow) fast protein liquid chromatography column (Pharmacia) in buffer A and eluted with a 100-ml linear gradient of 0 to 0.6 M KCl (for the oxygenase component) or 0 to 1.0 M KCl (for the ferredoxin and reductase components) in 1.5-ml fractions. Appropriate pooled fractions from separate columns for oxygenase purification (fractions 29 to 37), for ferredoxin purification (fractions 30 to 37), or for reductase purification (fractions 26 to 38) were used for the determination of component and cofactor requirements.
(§5) The three components were assayed for O-demethylase activity in various combinations to determine component requirements.
(§6) The amounts of partially purified protein (provided in an optimized ratio) in the reaction mixtures were 85 μg of oxygenase, 55 μg of ferredoxin and 50 μg of reductase. The concentration of cofactors used in the reaction mixtures were 0.5 mM NADH, 0.2 mM FAD, 0.5 mM FeSO4, 10 mM MgCl2, 0.5 mM NADPH, and 0.2 mM FMN.

dicamba O-demethylase [2] = biological target: dicamba O-demethylase (Stenotrophomonas maltophilia, UniProt Q5S3I3); conditions: cleared cell lysate, less than 1 ppm oxygen, 30° C., within 1 hour
Protocol: Oxygen requirement. […] The procedures for displacement of oxygen from the reaction mixture were performed at 4° C. Reaction mixtures lacking enzyme were placed in a vial and sealed with a rubber stopper. For displacement of oxygen, the vial was evacuated twice by vacuum and flushed each time with nitrogen. After a third evacuation, the vial was flushed with 90% nitrogen plus 10% hydrogen. The enzyme solution was likewise purged of oxygen (with care taken not to bubble the enzyme solution). Both the reaction mixtures and enzyme solutions were transferred into an anaerobic chamber (95% N2-5% H2 atmosphere). Two hundred forty microliters of cleared cell lysate was injected through the rubber stopper with a microsyringe and gently mixed with 960 μl of oxygen-free reaction mixture. Reactions were carried out at 30° C.
COc1c(Cl)ccc(Cl)c1C(=O)O = test: cells, lysate or membranes named; conditions: other: partially purified O-demethylase (40%-70% ammonium sulfate fraction), pH 7.0, 30° C., Michaelis-Menten/Lineweaver-Burk fit, duplicate experiments
dicamba O-demethylase [3] = biological target: T1, dicamba O-demethylase (Stenotrophomonas maltophilia, UniProt Q5S3I3); type: biochemical; conditions: mixed with excess amounts of components I and III; 55 μg partially purified component II or 100 μg highly purified Clostridium ferredoxin
T1 construct: partially purified O-demethylase enzyme [the 40%-70% (w/v) (NH4)2SO4 fraction from a cleared cell lysate]; endogenous in cells; host or cells: Pseudomonas maltophilia strain DI-6 (cleared cell lysate, ammonium sulfate cut, or Phenyl-/Q-Sepharose fractions)
T1 sequence (Q5S3I3 2-339): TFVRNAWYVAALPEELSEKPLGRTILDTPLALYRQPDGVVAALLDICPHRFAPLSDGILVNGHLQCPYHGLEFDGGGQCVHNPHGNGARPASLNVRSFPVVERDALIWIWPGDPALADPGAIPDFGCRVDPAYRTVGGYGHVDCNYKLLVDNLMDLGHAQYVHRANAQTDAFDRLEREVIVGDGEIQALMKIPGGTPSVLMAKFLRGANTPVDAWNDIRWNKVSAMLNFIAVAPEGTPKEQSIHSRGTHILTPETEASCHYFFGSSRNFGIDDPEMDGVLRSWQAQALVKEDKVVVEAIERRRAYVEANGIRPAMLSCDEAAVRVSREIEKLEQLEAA
Protocol: as §1, §2, §3, §4, §5, §6

[4] = Reductase assays (reduction of cytochrome c or DCIP in the presence of NADH); type: biochemical
Protocol: The reaction contained 0.5 mM NADH, 0.2 mM FAD (flavin adenine dinucleotide), 50 μM DCIP, 20 mM Tris buffer (pH 8.0), and 10-100 μl of enzyme sample in a total volume of 1 ml. The change in absorbance at 600 nm with time was measured at room temperature. Specific activity was calculated using an extinction coefficient at 600 nm of 21.0 mM^−1cm^−1 for reduced DCIP. Specific activity was expressed as nmol DCIP reduced min^−1 mg^−1 of protein.
In addition, an in situ DCIP assay was used to detect and locate the reductase activity in protein preparations separated on isoelectric focusing (IEF) gels. After electrophoresis of the proteins on an IEF gel, lanes sliced from the gel were washed with 20 ml of cold 20 mM Tris-HCl buffer (pH 8.0). Low melting agarose was dissolved by heating in 10 ml of 20 mM Tris-HCl buffer (pH 8.0) at a final concentration of 1.5% (w/v). When the agarose cooled to near room temperature, it was supplemented with 0.2 mM FAD, 50 μM DCIP, and 0.5 mM NADH. The assay mixture was poured onto a glass plate and allowed to solidify. The gel piece was placed on top of the solidified reaction mixture and allowed to set at room temperature for 15 minutes. If the gel slice contained a protein with reductase activity, a colorless band of reduced DCIP was generated in the blue background of DCIP.

Molecule: O=C(O)c1c(Cl)ccc(Cl)c1O [3,6-DCSA, 3,6-dichlorosalicylic acid]
- herbicidal activity (plants): no herbicidal activity

Molecule: Cc1cc2nc3c(=O)[nH]c(=O)nc-3n(C[C@H](O)[C@H](O)[C@H](O)COP(=O)(O)OP(=O)(O)OC[C@H]3O[C@@H](n4cnc5c(N)ncnc54)[C@H](O)[C@@H]3O)c2cc1C [FAD, flavin adenine dinucleotide]
- cofactor effect on dicamba O-demethylase activity (dicamba O-demethylase [1]): little or no stimulation

Molecule: Cc1cc2nc3c(=O)[nH]c(=O)nc-3n(C[C@H](O)[C@H](O)[C@H](O)COP(=O)(O)O)c2cc1C [FMN, flavin mononucleotide]
- cofactor effect on dicamba O-demethylase activity (dicamba O-demethylase [1]): little or no stimulation

Molecule: NC(=O)C1=CN([C@@H]2O[C@H](COP(=O)(O)OP(=O)(O)OC[C@H]3O[C@@H](n4cnc5c(N)ncnc54)[C@H](O)[C@@H]3O)[C@@H](O)[C@H]2O)C=CC1 [NADH, beta-nicotinamide adenine dinucleotide, reduced form]
- cofactor effect on dicamba O-demethylase activity (dicamba O-demethylase [1]): markedly more effective than NADPH

Molecule: NC(=O)C1=CN([C@@H]2O[C@H](COP(=O)(O)OP(=O)(O)OC[C@H]3O[C@@H](n4cnc5c(N)ncnc54)[C@H](OP(=O)(O)O)[C@@H]3O)[C@@H](O)[C@H]2O)C=CC1 [NADPH]
- cofactor effect on dicamba O-demethylase activity (dicamba O-demethylase [1]): supported enzyme activity

Molecule: COc1c(Cl)ccc(Cl)c1C(=O)O [dicamba, 3,6-dichloro-2-methoxybenzoic acid]
- conversion of dicamba to 3,6-DCSA under anaerobic conditions (dicamba O-demethylase [2]): virtually no conversion

Molecule: dicamba O-demethylase (Stenotrophomonas maltophilia)
- Km (COc1c(Cl)ccc(Cl)c1C(=O)O): 9.9 ± 3.9 µM and 10 µM

Molecule: ferredoxin from Clostridium: highly purified ferredoxin from Clostridium pasteurianum (AYKIADSCVSCGACASECPVNAISQGDSIFVIDADTCIDCGNCANVCPVGAPVQE; UniProt P00195 2-56, looked up)
- rate of conversion of dicamba to 3,6-DCSA (ferredoxin component) (dicamba O-demethylase [3]): 0.6 nmol/min/mg

B1: component I: oxygenase component of dicamba O-demethylase (protein)
chain: MTFVRNAWYVAALPEELSEKPLGRTILDTPLALYRQPDGVVAALLDICPHRFAPLSDGILVNGHLQCPYHGLEFDGGGQCVHNPHGNGARPASLNVRSFPVVERDALIWIWPGDPALADPGAIPDFGCRVDPAYRTVGGYGHVDCNYKLLVDNLMDLGHAQYVHRANAQTDAFDRLEREVIVGDGEIQALMKIPGGTPSVLMAKFLRGANTPVDAWNDIRWNKVSAMLNFIAVAPEGTPKEQSIHSRGTHILTPETEASCHYFFGSSRNFGIDDPEMDGVLRSWQAQALVKEDKVVVEAIERRRAYVEANGIRPAMLSCDEAAVRVSREIEKLEQLEAA
modifications: Pseudomonas maltophilia DI-6
notes: oxygenase component of dicamba O-demethylase
- reductase activity with cytochrome c or DCPIP in the presence of NADH [4]: Neither component I nor component II showed activity
